Laboratory results taken from patent US11590139B2, “Substituted aminopurine compounds, compositions thereof, and methods of treatment therewith” (Signal Pharmaceuticals, LLC, priority 2014, dated 2023).

The compounds below were run on Lox-IMVI melanoma cell line (assay: Lox-IMVI anti-proliferative assay (growth inhibition, Cell Titer-Glo)). Conditions: Homo sapiens; IC50 activity level in the cell-based Lox-IMVI anti-proliferative assay; read-out: Activity.
Type: cell-based, human
Method in brief: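 RPMI/10% FBS; cmpd 0.5 nM–10 μM, 3-fold ×10, duplicate, 0.2% DMSO final; 72 h, 37 °C, 5% CO2. ATP-luminescence readout at t0 and 72 h. IC50 = 50% of DMSO control, 4-parameter logistic fit.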

NC(=O)[C@H]1CC[C@@H](n2c(Nc3c(F)cc(Cl)cc3F)nc3cnc(NC4CCC4)nc32)CC1 [Example 129, (1s,4s)-4-(8-(4-chloro-2,6-difluorophenylamino)-2-(cyclobutylamino)-9H-purin-9-yl)cyclohexanecarboxamide] and NC(=O)[C@H]1CC[C@@H](n2c(Nc3c(F)cc(Cl)cc3Cl)nc3cnc(NC4CCC4)nc32)CC1 [Example 130, (1s,4s)-4-(2-(cyclobutylamino)-8-(2,4-dichloro-6-fluorophenylamino)-9H-purin-9-yl)cyclohexanecarboxamide] cannot be ordered by IC50: > 1000 nM for the first, > 1000 nM for the second.

C[C@H](CO)Nc1ncc2nc(Nc3c(Cl)cc(F)cc3Cl)n([C@H]3CC[C@@H](C(N)=O)CC3)c2n1 [Example 131, (1S,4s)-4-(8-(2,6-dichloro-4-fluorophenylamino)-2-((R)-1-hydroxypropan-2-ylamino)-9H-purin-9-yl)cyclohexanecarboxamide] and C[C@H](CO)Nc1ncc2nc(Nc3c(F)cc(F)cc3Cl)n([C@H]3CC[C@@H](C(N)=O)CC3)c2n1 [Example 134, (1S,4s)-4-(8-(2-chloro-4,6-difluorophenylamino)-2-((R)-1-hydroxypropan-2-ylamino)-9H-purin-9-yl)cyclohexanecarboxamide] cannot be ordered by IC50: > 1000 nM for the first, > 1000 nM for the second.

First: C[C@H](CO)Nc1ncc2nc(Nc3c(F)cc(Cl)cc3F)n([C@H]3CC[C@@H](C(N)=O)CC3)c2n1 [Example 132, (1S,4s)-4-(8-(4-chloro-2,6-difluorophenylamino)-2-((R)-1-hydroxypropan-2-ylamino)-9H-purin-9-yl)cyclohexanecarboxamide]
Second: C[C@H](CO)Nc1ncc2nc(Nc3c(F)cc(Cl)cc3Cl)n([C@H]3CC[C@@H](C(N)=O)CC3)c2n1 [Example 133, (1S,4s)-4-(8-(2,4-dichloro-6-nuorophenylamino)-2-((R)-1-hydroxypropan-2-ylamino)-9H-purin-9-yl)cyclohexanecarboxamide]
The IC50 of the first is higher: > 1000 nM for the first, 500 to 1000 nM for the second. The second is the more potent here.

Compared with C[C@@H](CO)Nc1ncc2nc(Nc3c(F)cc(Cl)cc3Cl)n([C@H]3CC[C@@H](C(N)=O)CC3)c2n1 [Example 135, (1R,4s)-4-(8-(2,4-dichloro-6-fluorophenylamino)-2-((S)-1-hydroxypropan-2-ylamino)-9H-purin-9-yl)cyclohexanecarboxamide], C[C@@H](CO)Nc1ncc2nc(Nc3c(F)cc(F)cc3Cl)n([C@H]3CC[C@@H](C(N)=O)CC3)c2n1 [Example 136, (1R,4s)-4-(8-(2-chloro-4,6-difluorophenylamino)-2-((S)-1-hydroxypropan-2-ylamino)-9H-purin-9-yl)cyclohexanecarboxamide] is higher in IC50: < 250 nM for the first, 500 to 1000 nM for the second. The first is the more potent here.

CC[C@H](CO)Nc1ncc2nc(Nc3c(Cl)cc(Cl)cc3Cl)n([C@H]3CC[C@@H](C(N)=O)CC3)c2n1 [Example 137, (1S,4s)-4-(2-((R)-1-hydroxybutan-2-ylamino)-8-(2,4,6-trichlorophenylamino)-9H-purin-9-yl)cyclohexanecarboxamide] and CC[C@@H](CO)Nc1ncc2nc(Nc3c(Cl)cc(Cl)cc3Cl)n([C@H]3CC[C@@H](C(N)=O)CC3)c2n1 [Example 154, (1R,4s)-4-(2-((S)-1-hydroxybutan-2-ylamino)-8-(2,4,6-trichlorophenylamino)-9H-purin-9-yl)cyclohexanecarboxamide] cannot be ordered by IC50: > 1000 nM for the first, > 1000 nM for the second.

NC(=O)[C@H]1CC[C@@H](n2c(Nc3c(Cl)cc(Cl)cc3Cl)nc3cnc(N[C@H]4CCNC[C@H]4F)nc32)CC1 [Example 138, (1R,4s)-4-(2-((3R,4S)-3-fluoropiperidin-4-ylamino)-8-(2,4,6-trichlorophenylamino)-9H-purin-9-yl)cyclohexanecarboxamide] and C[C@@H](O)CNc1ncc2nc(Nc3c(Cl)cc(Cl)cc3Cl)n([C@H]3CC[C@@H](C(N)=O)CC3)c2n1 [Example 152, (1S,4s)-4-(2-((R)-2-hydroxypropylamino)-8-(2,4,6-trichlorophenylamino)-9H-purin-9-yl)cyclohexanecarboxamide] cannot be ordered by IC50: > 1000 nM for the first, > 1000 nM for the second.

NC(=O)[C@H]1CC[C@@H](n2c(Nc3cccc(F)c3F)nc3cnc(NC4CCCC4)nc32)CC1 [Example 139, (1s,4s)-4-(2-(cyclopentylamino)-8-(2,3-difluorophenylamino)-9H-purin-9-yl)cyclohexanecarboxamide] and NC(=O)[C@H]1CC[C@@H](n2c(Nc3cccc(Cl)c3F)nc3cnc(NC4CCCC4)nc32)CC1 [Example 140, (1s,4s)-4-(8-(3-chloro-2-fluorophenylamino)-2-(cyclopentylamino)-9H-purin-9-yl)cyclohexanecarboxamide] cannot be ordered by IC50: > 1000 nM for the first, > 1000 nM for the second.

First: NC(=O)[C@H]1CC[C@@H](n2c(Nc3c(F)ccc(F)c3F)nc3cnc(NC4CCCC4)nc32)CC1 [Example 141, (1s,4s)-4-(2-(cyclopentylamino)-8-(2,3,6-trifluorophenylamino)-9H-purin-9-yl)cyclohexanecarboxamide]
Second: CC[C@@H](CO)Nc1ncc2nc(Nc3c(F)ccc(F)c3F)n([C@H]3CC[C@@H](C(N)=O)CC3)c2n1 [Example 148, (1R,4s)-4-(2-((S)-1-hydroxybutan-2-ylamino)-8-(2,3,6-trifluorophenylamino)-9H-purin-9-yl)cyclohexanecarboxamide]
The IC50 of the first is lower: 500 to 1000 nM for the first, > 1000 nM for the second.

COC[C@H](C)Nc1ncc2nc(Nc3c(Cl)cc(Cl)cc3Cl)n([C@H]3CC[C@@H](C(N)=O)CC3)c2n1 [Example 142, (1R,4s)-4-(2-((S)-1-methoxypropan-2-ylamino)-8-(2,4,6-trichlorophenylamino)-9H-purin-9-yl)cyclohexanecarboxamide] and CC[C@@H](CO)Nc1ncc2nc(Nc3c(Cl)cc(F)cc3Cl)n([C@H]3CC[C@@H](C(N)=O)CC3)c2n1 [Example 145, (1R,4s)-4-(8-(2,6-dichloro-4-fluorophenylamino)-2-((S)-1-hydroxybutan-2-ylamino)-9H-purin-9-yl)cyclohexanecarboxamide] cannot be ordered by IC50: > 1000 nM for the first, > 1000 nM for the second.

Compared with CC[C@@H](CO)Nc1ncc2nc(Nc3c(F)cc(F)cc3F)n([C@H]3CC[C@@H](C(N)=O)CC3)c2n1 [Example 143, (1R,4s)-4-(2-((S)-1-hydroxybutan-2-ylamino)-8-(2,4,6-trifluorophenylamino)-9H-purin-9-yl)cyclohexanecarboxamide], CC[C@@H](CO)Nc1ncc2nc(Nc3c(F)cc(Cl)cc3F)n([C@H]3CC[C@@H](C(N)=O)CC3)c2n1 [Example 146, (1R,4s)-4-(8-(4-chloro-2,6-difluorophenylamino)-2-((S)-1-hydroxybutan-2-ylamino)-9H-purin-9-yl)cyclohexanecarboxamide] is lower in IC50: > 1000 nM for the first, 500 to 1000 nM for the second. The second is the more potent here.

CC[C@@H](CO)Nc1ncc2nc(Nc3c(F)cccc3Cl)n([C@H]3CC[C@@H](C(N)=O)CC3)c2n1 [Example 144, (1R,4s)-4-(8-(2-chloro-6-fluorophenylamino)-2-((S)-1-hydroxybutan-2-ylamino)-9H-purin-9-yl)cyclohexanecarboxamide] and CC[C@@H](CO)Nc1ncc2nc(Nc3c(Cl)cccc3Cl)n([C@H]3CC[C@@H](C(N)=O)CC3)c2n1 [Example 153, (1R,4s)-4-(8-(2,6-dichlorophenylamino)-2-((S)-1-hydroxybutan-2-ylamino)-9H-purin-9-yl)cyclohexanecarboxamide] cannot be ordered by IC50: > 1000 nM for the first, > 1000 nM for the second.

CC[C@@H](CO)Nc1ncc2nc(Nc3c(F)cc(F)cc3Cl)n([C@H]3CC[C@@H](C(N)=O)CC3)c2n1 [Example 147, (1R,4s)-4-(8-(2-chloro-4,6-difluorophenylamino)-2-((S)-1-hydroxybutan-2-ylamino)-9H-purin-9-yl)cyclohexanecarboxamide] and CC[C@@H](CO)Nc1ncc2nc(Nc3ccc(F)c(F)c3F)n([C@H]3CC[C@@H](C(N)=O)CC3)c2n1 [Example 151, (1R,4s)-4-(2-((S)-1-hydroxybutan-2-ylamino)-8-(2,3,4-trifluorophenylamino)-9H-purin-9-yl)cyclohexanecarboxamide] cannot be ordered by IC50: > 1000 nM for the first, > 1000 nM for the second.

CC[C@@H](CO)Nc1ncc2nc(Nc3ccc(Cl)cc3Cl)n([C@H]3CC[C@@H](C(N)=O)CC3)c2n1 [Example 149, (1R,4s)-4-(8-(2,4-dichlorophenylamino)-2-((S)-1-hydroxybutan-2-ylamino)-9H-purin-9-yl)cyclohexanecarboxamide] and CC[C@@H](CO)Nc1ncc2nc(Nc3cccc(Cl)c3F)n([C@H]3CC[C@@H](C(N)=O)CC3)c2n1 [Example 150, (1R,4s)-4-(8-(3-chloro-2-fluorophenylamino)-2-((S)-1_ hydroxybutan-2-ylamino)-9H-purin-9-yl)cyclohexanecarboxamide] cannot be ordered by IC50: > 1000 nM for the first, > 1000 nM for the second.

CC(C)(C)OC(=O)N1CC[C@H](Nc2ncc3nc(Nc4c(F)cc(Cl)cc4F)n([C@H]4CC[C@@H](C(N)=O)CC4)c3n2)[C@H](F)C1 [Example 155, (3R,4S)-tert-butyl 4-(9-((1s,4R)-4-carbamoylcyclohexyl)-8-(4-chloro-2,6-difluorophenylamino)-9H-purin-2-ylamino)-3-fluoropiperidine-1-carboxylate] and CC(C)(C)OC(=O)N1CCC[C@@H](Nc2ncc3nc(Nc4c(F)cc(F)cc4F)n([C@H]4CC[C@@H](C(N)=O)CC4)c3n2)C1 [Example 158, (R)-tert-butyl 3-(9-((1s,4S)-4-carbamoylcyclohexyl)-8-(2,4,6-trifluorophenylamino)-9H-purin-2-ylamino)piperidine-1-carboxylate] cannot be ordered by IC50: > 1000 nM for the first, > 1000 nM for the second.

NC(=O)[C@H]1CC[C@@H](n2c(Nc3c(F)cc(Cl)cc3F)nc3cnc(NC4CCS(=O)(=O)CC4)nc32)CC1 [Example 156, (1s,4s)-4-(8-((4-chloro-2,6-difluorophenyl)amino)-2-((1,1-dioxidotetrahydro-2H-thiopyran-4-yl)amino)-9H-purin-9-yl)cyclohexane-1-carboxamide] and NC(=O)[C@H]1CC[C@@H](n2c(Nc3c(F)cc(Cl)cc3Cl)nc3cnc(NC4CCS(=O)(=O)CC4)nc32)CC1 [Example 157, (1s,4s)-4-(8-((2,4-dichloro-6-fluorophenyl)amino)-2-((1,1-dioxidotetrahydro-2H-thiopyran-4-yl)amino)-9H-purin-9-yl)cyclohexane-1-carboxamide] cannot be ordered by IC50: > 1000 nM for the first, > 1000 nM for the second.
